Measured values: ChEMBL document CHEMBL4028802, “DILIrank: the largest reference drug list ranked by the risk for developing drug-induced liver injury in humans” (Drug Discov Today, 2016)

Legend:
[1] = species: Homo sapiens; assay: Liver toxicity in human assessed as induction of drug-induced liver injury by measuring severity class index
[2] = species: Homo sapiens; assay: Liver toxicity in human assessed as induction of drug-induced liver injury by measuring verified drug-induced liver injury concern status
For DILI severity class in this document: key of the grades not given here.

Row | Compound | DILI_severity_class [1] | DILI_Concern [2]
1 | COc1ccc2c3c1O[C@H]1[C@@H](O)C=C[C@H]4[C@@H](C2)N(C)CC[C@@]341 [CODEINE] | 0 | No-Dili-Concern
2 | CN1C(=O)CN=C(c2ccccc2)c2cc(Cl)ccc21 [DIAZEPAM] | 4 | Ambiguous-Dili-Concern
3 | N=C(N)c1ccc(OCCCCCOc2ccc(C(=N)N)cc2)cc1 [PENTAMIDINE] | 3 | Less-Dili-Concern
4 | Cc1cn([C@H]2C=C[C@@H](CO)O2)c(=O)[nH]c1=O [STAVUDINE] | 8 | Most-Dili-Concern
5 | CCOC(=O)[C@H](CCc1ccccc1)N[C@H]1CCc2ccccc2N(CC(=O)O)C1=O [BENAZEPRIL] | 4 | Less-Dili-Concern
6 | CC[C@@H](CO)NCCN[C@@H](CC)CO [ETHAMBUTOL] | 8 | Most-Dili-Concern
7 | NCC[C@H](O)C(=O)N[C@@H]1C[C@H](N)[C@@H](O[C@H]2O[C@H](CN)[C@@H](O)[C@H](O)[C@H]2O)[C@H](O)[C@H]1O[C@H]1O[C@H](CO)[C@@H](O)[C@H](N)[C@H]1O [AMIKACIN] | 0 | No-Dili-Concern
8 | Nc1nc2[nH]cc(CCc3ccc(C(=O)N[C@@H](CCC(=O)O)C(=O)O)cc3)c2c(=O)[nH]1 [PEMETREXED] | 3 | Ambiguous-Dili-Concern
9 | CC(C)(C)NCC(O)c1cc(O)cc(O)c1 (configuration not stated) [TERBUTALINE] | 3 | Less-Dili-Concern
10 | O=C1[C@H](CC[C@H](O)c2ccc(F)cc2)[C@@H](c2ccc(O)cc2)N1c1ccc(F)cc1 [EZETIMIBE] | 3 | Less-Dili-Concern
11 | CNC1=Nc2ccc(Cl)cc2C(c2ccccc2)=[N+]([O-])C1 [CHLORDIAZEPOXIDE] | 5 | Less-Dili-Concern
12 | OC(CCN1CCCCC1)(c1ccccc1)C1CCCCC1 (configuration not stated) [TRIHEXYPHENIDYL] | 0 | No-Dili-Concern
13 | Cc1nc([N+](=O)[O-])cn1-c1ccc([N+](=O)[O-])cc1 [NITREFAZOLE] | 8 | Most-Dili-Concern
14 | COc1ccc([C@@H]2Sc3ccccc3N(CCN(C)C)C(=O)[C@@H]2OC(C)=O)cc1 [DILTIAZEM] | 4 | Most-Dili-Concern
15 | CCCN(CCC)C(=O)Cc1c(-c2ccc(Cl)cc2)nc2ccc(Cl)cn12 [ALPIDEM] | 8 | Most-Dili-Concern
16 | CC(=O)NO [ACETOHYDROXAMIC ACID] | 3 | Ambiguous-Dili-Concern
17 | CN1CCC(=C2c3ccccc3C=Cc3ccccc32)CC1 [CYPROHEPTADINE] | 7 | Less-Dili-Concern
18 | COc1cc2c(cc1OC)[C@@H](Cc1cc(OC)c(OC)c(OC)c1)[N+](C)(CCCOC(=O)CC/C=C/CCC(=O)OCCC[N+]1(C)CCc3cc(OC)c(OC)cc3[C@H]1Cc1cc(OC)c(OC)c(OC)c1)CC2 (some centres not stated) | 0 | No-Dili-Concern
19 | CC(=O)O[C@H]1C[C@@H]2CC[C@@H]3[C@H](CC[C@@]4(C)[C@H]3C[C@H]([N+]3(C)CCCCC3)[C@@H]4OC(C)=O)[C@@]2(C)C[C@@H]1N1CCCCC1 [VECURONIUM] | 0 | No-Dili-Concern
20 | C[C@H]1[C@H](c2ccccc2)OCCN1C [PHENDIMETRAZINE] | 0 | No-Dili-Concern
21 | N=C(N)NCCC[C@H](N)C(=O)O [ARGININE] | 0 | No-Dili-Concern

Row | Compound | DILI_severity_class [1] | DILI_Concern [2]
22 | Nc1ccn([C@@H]2CS[C@H](CO)O2)c(=O)n1 [LAMIVUDINE] | 3 | Less-Dili-Concern
23 | CCN(CC)CCOC(=O)C1(C2CCCCC2)CCCCC1 [DICYCLOMINE] | 0 | No-Dili-Concern
24 | C#CCC(Cc1cnc2nc(N)nc(N)c2n1)c1ccc(C(=O)N[C@@H](CCC(=O)O)C(=O)O)cc1 (some centres not stated) [PRALATREXATE] | 3 | Ambiguous-Dili-Concern
25 | Oc1ccc2c(c1)[C@@]13CCCC[C@@]1(O)[C@@H](C2)N(CC1CCC1)CC3 [BUTORPHANOL] | 0 | No-Dili-Concern
26 | CN(CCOc1ccc(NS(C)(=O)=O)cc1)CCc1ccc(NS(C)(=O)=O)cc1 [DOFETILIDE] | 0 | No-Dili-Concern
27 | CN(C)CCc1c[nH]c2ccc(Cn3cncn3)cc12 [RIZATRIPTAN] | 0 | No-Dili-Concern
28 | CNS(=O)(=O)Cc1ccc2[nH]cc(CCN(C)C)c2c1 | 3 | Ambiguous-Dili-Concern
29 | CC(C)NCC(O)COc1ccc(COCCOC(C)C)cc1 (configuration not stated) [BISOPROLOL] | 3 | Ambiguous-Dili-Concern
30 | CC(C)(N)Cc1ccccc1 [PHENTERMINE] | 0 | Less-Dili-Concern
31 | CCCCN1C[C@H](O)[C@@H](O)[C@H](O)[C@H]1CO | 0 | No-Dili-Concern
32 | NC[C@H](O)c1ccc(O)c(O)c1 [NOREPINEPHRINE] | 0 | No-Dili-Concern
33 | enfuvirtide | 3 | Ambiguous-Dili-Concern
34 | CN1CC[C@]23c4c5ccc(O)c4O[C@H]2[C@@H](O)C=C[C@H]3[C@H]1C5 [MORPHINE] | 0 | No-Dili-Concern
35 | Clc1cccc(Cl)c1N=C1NCCN1 [CLONIDINE] | 3 | Ambiguous-Dili-Concern
36 | CN(C)CCCC1(c2ccc(F)cc2)OCc2cc(C#N)ccc21 (configuration not stated) [CITALOPRAM] | 7 | Less-Dili-Concern
37 | CC(C)(C)NC[C@H](O)COc1nsnc1N1CCOCC1 [TIMOLOL] | 5 | Ambiguous-Dili-Concern
38 | C[C@]12CCC(=O)C=C1CC[C@H]1[C@@H]3CC[C@](O)(C(=O)CO)[C@@]3(C)C[C@H](O)[C@@]12F [FLUDROCORTISONE] | 0 | No-Dili-Concern
39 | CC(N)Cc1ccccc1 (configuration not stated) [AMPHETAMINE] | 0 | Less-Dili-Concern
40 | c1cc(CN2CCCNCCNCCCNCC2)ccc1CN1CCCNCCNCCCNCC1 [PLERIXAFOR] | 0 | No-Dili-Concern
41 | COc1cc(C)c(/C=C/C(C)=C/C=C/C(C)=C/C(=O)O)c(C)c1C [ACITRETIN] | 5 | Most-Dili-Concern
42 | CCN(CC)CC(=O)Nc1c(C)cccc1C [LIDOCAINE] | 0 | No-Dili-Concern

Row | Compound | DILI_severity_class [1] | DILI_Concern [2]
43 | Cc1cc(C#N)cc(C)c1Oc1nc(Nc2ccc(C#N)cc2)nc(N)c1Br [ETRAVIRINE] | 8 | Most-Dili-Concern
44 | CNCCCC12CCC(c3ccccc31)c1ccccc12 [MAPROTILINE] | 5 | Ambiguous-Dili-Concern
45 | CN(C)CC[C@@H](c1ccc(Cl)cc1)c1ccccn1 [DEXCHLORPHENIRAMINE] | 0 | No-Dili-Concern
46 | C=C[C@H]1C[N@@]2CC[C@H]1C[C@@H]2[C@@H](O)c1ccnc2ccc(OC)cc12 [QUINIDINE] | 3 | Less-Dili-Concern
47 | COc1ccc(CC2c3cc(OC)c(OC)cc3CC[N+]2(C)CCC(=O)OCCCCCOC(=O)CC[N+]2(C)CCc3cc(OC)c(OC)cc3C2Cc2ccc(OC)c(OC)c2)cc1OC (configuration not stated) | 0 | No-Dili-Concern
48 | NNCCc1ccccc1 [PHENELZINE] | 3 | Less-Dili-Concern
49 | CN(C)C/C=C(/c1ccc(Br)cc1)c1cccnc1 [ZIMELDINE] | 8 | Most-Dili-Concern
50 | SEVELAMER | 0 | No-Dili-Concern
51 | CC(C)[C@H](N)C(=O)OCCOCn1cnc2c(=O)[nH]c(N)nc21 [VALACYCLOVIR] | 3 | Less-Dili-Concern
52 | CCC(C)n1ncn(-c2ccc(N3CCN(c4ccc(OCC5COC(Cn6cncn6)(c6ccc(Cl)cc6Cl)O5)cc4)CC3)cc2)c1=O (configuration not stated) [ITRACONAZOLE] | 8 | Most-Dili-Concern
53 | Nc1nc(=O)n([C@@H]2CS[C@H](CO)O2)cc1F [EMTRICITABINE] | 2 | Ambiguous-Dili-Concern
54 | CCN(CC)CCOc1ccc(C(=C(Cl)c2ccccc2)c2ccccc2)cc1 [CLOMIPHENE] | 3 | Less-Dili-Concern
55 | CCO[C@@H]1OC(=O)C[C@@H]1NC(=O)[C@@H]1CCCN2C(=O)CC[C@H](NC(=O)c3nccc4ccccc34)C(=O)N12 | 8 | Most-Dili-Concern
56 | C[C@H]1O[C@@H](O[C@H]2[C@@H](O)C[C@H](O[C@H]3[C@@H](O)C[C@H](O[C@H]4CC[C@@]5(C)[C@H](CC[C@@H]6[C@@H]5C[C@@H](O)[C@]5(C)[C@@H](C7=CC(=O)OC7)CC[C@]65O)C4)O[C@@H]3C)O[C@@H]2C)C[C@H](O)[C@@H]1O [DIGOXIN] | 0 | No-Dili-Concern
57 | CCCCCCCN(CC)CCCC(O)c1ccc(NS(C)(=O)=O)cc1 (configuration not stated) [IBUTILIDE] | 0 | No-Dili-Concern
58 | CC(C)(C)NC(=O)[C@H]1CC[C@H]2[C@@H]3CC[C@H]4NC(=O)C=C[C@]4(C)[C@H]3CC[C@]12C [FINASTERIDE] | 0 | Less-Dili-Concern
59 | C[C@@](Cc1ccc(O)c(O)c1)(NN)C(=O)O [CARBIDOPA ANHYDROUS] | 3 | Ambiguous-Dili-Concern
60 | Cc1c(OCC(F)(F)F)ccnc1C[S+]([O-])c1nc2ccccc2[nH]1 (configuration not stated) [LANSOPRAZOLE] | 3 | Less-Dili-Concern
61 | CCC(C)C1(CC)C(=O)NC(=O)NC1=O (configuration not stated) [BUTABARBITAL] | 3 | Ambiguous-Dili-Concern
